According to US20250064941A1, “SIGLEC LIGANDS, CONJUGATES, AND METHODS OF USE THEREOF” (Osprey Biopharmaceuticals, Inc., priority 2023, published 2025):

How the values were obtained:
cynomolgus Siglec-2/CD22 = cynomolgus Siglec-2/CD22 (Macaca fascicularis, UniProt A0A2K5WCZ6); assay: biochemical; type: binding; conditions: SPR, steady-state analysis; read-out: Affinity cyno CD22
Summary of the method: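 SPR with desialylated (SialoExo, 4 h, 37° C.) cynomolgus CD22 amine-coupled to a CM5 chip. Running buffer 10 mM HEPES, 150 mM NaCl, 0.05% Tween-20, pH 7.5, 1% DMSO, with solvent correction; 120 s dissociation. Affinities from steady-state analysis.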

[1] = target: T1, human Siglec-2/CD22 protein (Homo sapiens, UniProt P20273); assay: SPR binding affinity to human CD22; conditions: steady-state analysis
T1 construct: purchased Acro Biosystems SI2-H82E3
T1 sequence (P20273 20-847): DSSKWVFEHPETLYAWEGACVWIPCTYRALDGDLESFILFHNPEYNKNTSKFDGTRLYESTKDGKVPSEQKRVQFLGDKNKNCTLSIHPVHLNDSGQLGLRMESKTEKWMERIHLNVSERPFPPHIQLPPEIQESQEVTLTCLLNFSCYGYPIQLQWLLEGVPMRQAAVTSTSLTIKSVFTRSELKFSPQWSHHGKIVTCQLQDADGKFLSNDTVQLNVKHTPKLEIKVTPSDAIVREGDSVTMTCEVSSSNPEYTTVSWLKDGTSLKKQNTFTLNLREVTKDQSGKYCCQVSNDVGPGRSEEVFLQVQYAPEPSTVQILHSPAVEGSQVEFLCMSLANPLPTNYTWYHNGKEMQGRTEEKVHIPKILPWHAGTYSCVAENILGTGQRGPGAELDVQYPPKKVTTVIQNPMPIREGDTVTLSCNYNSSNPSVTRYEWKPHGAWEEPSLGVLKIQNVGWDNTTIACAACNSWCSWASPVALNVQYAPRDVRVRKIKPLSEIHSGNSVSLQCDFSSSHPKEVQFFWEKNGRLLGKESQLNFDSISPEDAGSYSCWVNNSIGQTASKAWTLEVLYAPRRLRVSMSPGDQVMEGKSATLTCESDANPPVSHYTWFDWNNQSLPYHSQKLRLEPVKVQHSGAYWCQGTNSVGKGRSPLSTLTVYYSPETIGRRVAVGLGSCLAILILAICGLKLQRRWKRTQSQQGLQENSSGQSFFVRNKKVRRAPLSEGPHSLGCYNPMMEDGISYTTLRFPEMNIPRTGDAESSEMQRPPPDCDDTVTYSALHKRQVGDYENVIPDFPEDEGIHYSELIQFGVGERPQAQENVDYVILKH
Summary of the method: (§1)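 SialoExo pretreatment, 4 h 37° C.; biotinylated CD22 on SA chip, Biacore 8K. Buffer 10 mM HEPES, 150 mM NaCl, 0.05% Tween-20, pH 7.5, 1% DMSO. Dissociation 120 s; solvent-corrected; steady-state KD.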

[2] = target: T2, mouse Siglec-2-Fc-Avi (CD22) (Mus musculus, UniProt P35329); assay: SPR binding affinity to mouse CD22; conditions: steady-state analysis
T2 construct: made in house
T2 sequence (P35329 22-708 limits assumed): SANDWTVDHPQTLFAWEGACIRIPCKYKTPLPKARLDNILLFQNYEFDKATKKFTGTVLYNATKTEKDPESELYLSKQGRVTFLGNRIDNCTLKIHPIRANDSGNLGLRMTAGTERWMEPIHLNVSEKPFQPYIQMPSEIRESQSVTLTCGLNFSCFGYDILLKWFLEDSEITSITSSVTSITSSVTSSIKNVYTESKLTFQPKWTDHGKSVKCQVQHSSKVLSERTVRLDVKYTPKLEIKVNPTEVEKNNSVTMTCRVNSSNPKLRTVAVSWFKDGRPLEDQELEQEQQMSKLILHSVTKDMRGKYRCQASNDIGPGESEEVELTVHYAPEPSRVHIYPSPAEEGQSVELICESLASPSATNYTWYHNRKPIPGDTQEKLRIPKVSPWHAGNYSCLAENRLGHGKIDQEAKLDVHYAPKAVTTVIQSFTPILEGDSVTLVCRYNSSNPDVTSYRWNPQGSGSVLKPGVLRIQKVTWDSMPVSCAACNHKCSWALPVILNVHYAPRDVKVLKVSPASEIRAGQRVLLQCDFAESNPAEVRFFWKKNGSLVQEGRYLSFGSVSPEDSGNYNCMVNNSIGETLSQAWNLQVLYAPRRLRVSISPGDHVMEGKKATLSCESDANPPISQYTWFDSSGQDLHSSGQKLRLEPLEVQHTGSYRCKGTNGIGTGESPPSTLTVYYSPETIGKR
Summary of the method: as §1

Sequence of cynomolgus Siglec-2/CD22 (A0A2K5WCZ6 entry or part of it): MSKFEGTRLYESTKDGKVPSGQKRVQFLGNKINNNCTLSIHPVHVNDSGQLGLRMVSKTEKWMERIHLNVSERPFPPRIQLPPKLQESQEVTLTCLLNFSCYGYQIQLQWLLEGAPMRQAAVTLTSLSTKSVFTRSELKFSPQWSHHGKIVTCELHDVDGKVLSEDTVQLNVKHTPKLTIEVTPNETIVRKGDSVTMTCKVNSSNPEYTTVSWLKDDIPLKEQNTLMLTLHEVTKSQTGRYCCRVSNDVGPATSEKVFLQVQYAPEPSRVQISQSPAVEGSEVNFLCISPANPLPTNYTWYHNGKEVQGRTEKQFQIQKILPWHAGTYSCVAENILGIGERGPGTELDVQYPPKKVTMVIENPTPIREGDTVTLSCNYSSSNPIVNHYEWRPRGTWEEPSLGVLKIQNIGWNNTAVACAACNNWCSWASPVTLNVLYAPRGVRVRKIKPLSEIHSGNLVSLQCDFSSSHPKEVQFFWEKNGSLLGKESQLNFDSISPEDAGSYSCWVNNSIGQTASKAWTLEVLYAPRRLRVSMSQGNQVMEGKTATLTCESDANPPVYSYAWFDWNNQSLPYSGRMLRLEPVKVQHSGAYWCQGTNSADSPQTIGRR

Compound | Kd (cynomolgus Siglec-2/CD22) | Kd [1] | Kd [2]
C#CCOCCOCCNc1c(NCCCCCCO[C@]2(C(=O)O)C[C@H](O)[C@@H](NC(=O)CO)[C@H]([C@H](O)[C@H](O)CNC(=O)c3cccc(C(F)F)c3)O2)c(=O)c1=O [Compound 233, (2R,4S,5R,6R)-6-((1R,2R)-3-(3-(difluoromethyl)benzamido)-1,2-dihydroxypropyl)-2-((6-((3,4-dioxo-2-((2-(2-(prop-2-yn-1-yloxy)ethoxy)ethyl)amino)cyclobut-1-en-1-yl)amino)hexyl)oxy)-4-hydroxy-5-(2-hydroxyacetamido)tetrahydro-2H-pyran-2-carboxylic acid] | 1 to 10 µM | 1 to 10 µM | 1 to 10 µM
C#CCOCCOCCNc1c(NCCCCCCO[C@]2(C(=O)O)C[C@H](O)[C@@H](NC(=O)CO)[C@H]([C@H](O)[C@H](O)CNC(=O)c3cccc(F)c3)O2)c(=O)c1=O [Compound 234, (2R,4S,5R,6R)-2-((6-((3,4-dioxo-2-((2-(2-(prop-2-yn-1-yloxy)ethoxy)ethyl)amino)cyclobut-1-en-1-yl)amino)hexyl)oxy)-6-((1R,2R)-3-(3-fluorobenzamido)-1,2-dihydroxypropyl)-4-hydroxy-5-(2-hydroxyacetamido)tetrahydro-2H-pyran-2-carboxylic acid] | 1 to 10 µM | 1 to 10 µM | 1 to 10 µM
CC(=O)NCCOCCOCCOCCOCCC(=O)NCCOCCOCCO[C@]1(C(=O)O)C[C@H](O)[C@@H](NC(=O)CO)[C@H]([C@H](O)[C@H](O)CNC(=O)Cc2ccc(-c3ccccc3)cc2)O1 [Compound 236, (2R,4S,5R,6R)-6-((1R,2R)-3-(2-([1,1′-biphenyl]-4-yl)acetamido)-1,2-dihydroxypropyl)-2-((2,18-dioxo-6,9,12,15,22,25-hexaoxa-3,19-diazaheptacosan-27-yl)oxy)-4-hydroxy-5-(2-hydroxyacetamido) tetrahydro-2H-pyran-2-carboxylic acid] | 1 to 10 µM | 1 to 10 µM | 1 to 10 µM
CC(=O)NCCOCCOCCOCCOCCC(=O)NCCOCCOCCO[C@]1(C(=O)O)C[C@H](O)[C@@H](NC(=O)CO)[C@H]([C@H](O)[C@H](O)CNC(=O)Cc2ccc(Cl)cc2)O1 [Compound 237, (2R,4S,5R,6R)-6-((1R,2R)-3-(2-(4-chlorophenyl)acetamido)-1,2-dihydroxypropyl)-2-((2,18-dioxo-6,9,12,15,22,25-hexaoxa-3,19-diazaheptacosan-27-yl)oxy)-4-hydroxy-5-(2-hydroxyacetamido) tetrahydro-2H-pyran-2-carboxylic acid] | 1 to 10 µM | 1 to 10 µM | 1 to 10 µM
CC(=O)NCCOCCOCCOCCOCCNC(=O)CCOCCO[C@]1(C(=O)O)C[C@H](O)[C@@H](NC(=O)CO)[C@H]([C@H](O)[C@H](O)CNC(=O)Cc2ccc(-c3ccccc3)cc2)O1 [Compound 238, (2R,4S,5R,6R)-6-((1R,2R)-3-(2-([1,1′-biphenyl]-4-yl)acetamido)-1,2-dihydroxypropyl)-2-((2,19-dioxo-6,9,12,15,22-pentaoxa-3,18-diazatetracosan-24-yl)oxy)-4-hydroxy-5-(2-hydroxyacetamido) tetrahydro-2H-pyran-2-carboxylic acid] | 1 to 10 µM | 1 to 10 µM | 1 to 10 µM
CC(=O)NCCOCCOCCOCCOCCNC(=O)CCOCCO[C@]1(C(=O)O)C[C@H](O)[C@@H](NC(=O)CO)[C@H]([C@H](O)[C@H](O)CNC(=O)Cc2ccc(Cl)cc2)O1 [Compound 239, (2R,4S,5R,6R)-6-((1R,2R)-3-(2-(4-chlorophenyl)acetamido)-1,2-dihydroxypropyl)-2-((2,19-dioxo-6,9,12,15,22-pentaoxa-3,18-diazatetracosan-24-yl)oxy)-4-hydroxy-5-(2-hydroxyacetamido) tetrahydro-2H-pyran-2-carboxylic acid] | 1 to 10 µM | 1 to 10 µM | 1 to 10 µM
CC(=O)NCCOCCOCCOCCOCCNc1c(NCCCCCCO[C@]2(C(=O)O)C[C@H](O)[C@@H](NC(=O)CO)[C@H]([C@H](O)[C@H](O)CNC(=O)Cc3ccc(Cl)cc3)O2)c(=O)c1=O [Compound 240, (2R,4S,5R,6R)-6-((1R,2R)-3-(2-(4-chlorophenyl)acetamido)-1,2-dihydroxypropyl)-2-((6-((3,4-dioxo-2-((2-oxo-6,9,12,15-tetraoxa-3-azaheptadecan-17-yl)amino)cyclobut-1-en-1-yl)amino)hexyl)oxy)-4-hydroxy-5-(2-hydroxyacetamido) tetrahydro-2H-pyran-2-carboxylic acid] | < 1 µM | < 1 µM | < 1 µM
CC(=O)NCCOCCOCCOCCOCc1cn(CCCCCCO[C@]2(C(=O)O)C[C@H](O)[C@@H](NC(=O)CO)[C@H]([C@H](O)[C@H](O)CNC(=O)Cc3ccc(C(F)F)cc3)O2)nn1 [Compound 252, (2R,4S,5R,6R)-6-((1R,2R)-3-(2-(4-(difluoromethyl)phenyl)acetamido)-1,2-dihydroxypropyl)-4-hydroxy-5-(2-hydroxyacetamido)-2-((6-(4-(15-oxo-2,5,8,11-tetraoxa-14-azahexadecyl)-1H-1,2,3-triazol-1-yl)hexyl)oxy) tetrahydro-2H-pyran-2-carboxylic acid] | < 1 µM | < 1 µM | 1 to 10 µM
CC(=O)NCCOCCOCCOCCOCCn1cc(CCCCCCO[C@]2(C(=O)O)C[C@H](O)[C@@H](NC(=O)CO)[C@H]([C@H](O)[C@H](O)CNC(=O)Cc3ccc(C(F)F)cc3)O2)nn1 [Compound 253, (2R,4S,5R,6R)-6-((1R,2R)-3-(2-(4-(difluoromethyl)phenyl)acetamido)-1,2-dihydroxypropyl)-4-hydroxy-5-(2-hydroxyacetamido)-2-((6-(1-(2-oxo-6,9,12,15-tetraoxa-3-azaheptadecan-17-yl)-1H-1,2,3-triazol-4-yl)hexyl)oxy)tetrahydro-2H-pyran-2-carboxylic acid] | < 1 µM | < 1 µM | < 1 µM
CC(=O)NCCOCCOCCOCCOCc1cn(CCCCCCCCO[C@]2(C(=O)O)C[C@H](O)[C@@H](NC(=O)CO)[C@H]([C@H](O)[C@H](O)CNC(=O)Cc3ccc(C(F)F)cc3)O2)nn1 [Compound 259, (2R,4S,5R,6R)-6-((1R,2R)-3-(2-(4-(difluoromethyl)phenyl)acetamido)-1,2-dihydroxypropyl)-4-hydroxy-5-(2-hydroxyacetamido)-2-((8-(4-(15-oxo-2,5,8,11-tetraoxa-14-azahexadecyl)-1H-1,2,3-triazol-1-yl)octyl)oxy)tetrahydro-2H-pyran-2-carboxylic acid] | < 1 µM | < 1 µM | < 1 µM
CC(=O)NCCOCCOCCOCCOCCNC(=O)CCCCCCO[C@]1(C(=O)O)C[C@H](O)[C@@H](NC(=O)CO)[C@H]([C@H](O)[C@H](O)CNC(=O)Cc2ccc(Cl)cc2)O1 [Compound 264, (2R,4S,5R,6R)-6-((1R,2R)-3-(2-(4-chlorophenyl)acetamido)-1,2-dihydroxypropyl)-2-((2,19-dioxo-6,9,12,15-tetraoxa-3,18-diazapentacosan-25-yl)oxy)-4-hydroxy-5-(2-hydroxyacetamido) tetrahydro-2H-pyran-2-carboxylic acid] | < 1 µM | < 1 µM | 1 to 10 µM
